# US20190167711A1, “METHODS FOR DIAGNOSIS AND TREATMENT OF ACUTE LYMPHOBLASTIC LEUKEMIA” (MOR RESEARCH APPLICATIONS LTD., priority 2014, published 2019)
# Columns and labels:
# [1] = system: NAMPT; assay: NAMPT expression by FACS in transfected Nalm-6 cells; type: cell-based
# Method: One to two million NALM-6 transfected cells were collected 48 hours after transfection and fixed using 500 μl fixation and permeabilization buffer prior to immunofluorescent staining of intracellular proteins (e.g., BD Phosflow™ Fix Buffer I (BD Biosciences, San Jose, Calif., USA)) for 15 minutes. Then, pellets were washed twice using PBS and resuspended in 500 μl methanol. Samples were incubated for 2 hours in −20° C. For staining, pellets were washed with PBS and resuspended in 10 ml BD™ Cell Wash buffer (BD Biosciences, San Jose, Calif., USA) containing 2% FCS. The cells were stained for NAMPT using anti-NAMPT antibody (Ab) (1:1000) (R&D Systems®, MN, USA). […] The cells were sorted on flow cytometer (Calibur™ flow cytometer, Becton Dickinson, Le Pont-De-Claix, France) and analyzed using BD CellQuest™ Pro software.
# Using open access software programs (TargetScan and miRanda), NAMPT was identified as a predicted target of miR-451. […] NAMPT expression was measured by FACS analysis using a specific NAMPT antibody.
# In order to assess a possible association or correlation between miR-451 expression levels and sensitivity to in-vivo treatment of ALL with a NAMPT inhibitor, the effect of the NAMPT inhibitor FK866 was assessed in the presence of elevated levels or lowered levels of miR-451 in ALL xenograft mouse model. […] Tumors volume was measured daily.
# [2] = system: Nalm-6 cells; assay: Tumor growth of transfected Nalm-6 cells injected s.c. into NOD/SCID mice; type: in vivo
# Text: As described herein, decreased expression of miR-451 in comparison to a control level can serve as a prognostic factor for ALL relapse risk, as low expression of miR-451 at first diagnosis predicts worse outcome. […] Scrambled miRNA-transfected cells served as negative control (Nalm-6/miR-NC). Quantitative reverse transcription PCR (RT-qPCR) was used to confirm miR-451 expression in the transfected cells.
# To further study the putative tumor-suppressive function of hsa-miR-451 in vivo, 10^7 viable Nalm-6 cells either untransfected, transfected in vitro with miR-451 mimic, or transfected with scrambled miR (control), were injected sub-cutaneously (s.c.) into the right flanks of 6-week-old female NOD/SCID mice. […] On day 26, the median tumor volume in the scrambled control mice and the miR-451 mimic mice were 204.69 mm^3 (SE=63.96) and 23.32 mm^3 (SE=13.12), respectively (p=0.019). At the end of the experiment, mice were sacrificed, and the tumors were weighted. The median tumor weight in the scrambled control mice and the miR-451 mimic mice were 0.0966 gr (SE=0.040) and 0.0159 gr (SE=0.0009), respectively (p=0.046) (FIG. 4C).
# [3] = system: ADAM10; assay: Western blot of ADAM10 in transfected NALM-6 cells; type: cell-based; conditions: NALM-6 transient
# Text: Protein was extracted from NALM-6 cell line using Qproteome™ lysis buffer (Qiagen, Hilden, Germany). The membrane was then probed with one or more of the following antibodies: anti-disintegrin and metalloproteinase domain-containing protein 10 (ADAM10) (1:1000) (Abcam; Cambridge, UK) (see Example 9); anti-chemokine C-X-C motif 16 (CXCL16) (1:1000); anti-NAMPT (1:1000); and anti-GAPDH (1:5000) (Santa Crus Biotechnology, Santa Crus, Calif., USA) (see Examples 5 and 9). The secondary antibodies were goat anti-mouse and goat anti-rabbit (1:10,000) (Sigma®, Saint Louis, Mo., USA), for each antigen according to the manufacturer's instructions. […]
# Intensity of the protein band was measured using an in-house program. […]
# Possible miR-451 targets were evaluated using several open access software programs (e.g., Targetscan, PicTar, miRanda, miRDB). […] In the first screening, the suppression of ADAM10, CXCL16 and NAMPT protein level was analyzed in NALM-6 cells transiently expressing miR-451 mimic (SEQ ID NO: 2) and in cells transiently expressing scrambled-miR (universal sequence; negative control) by Western blot as described in Materials and Methods. […]
substance,measurement,setting,value
"miR-451 mimic: a dsmiR-451 designed to copy or mimic the functionality of mature endogenous miR-451 upon transfection (AAACCGUUACCAUUACUGAGUU; double-stranded mimic, further chemistry not given here; listed as Homo sapiens)",NAMPT protein expression decreased by,[1],46%
same,tumor growth vs scrambled miR control cells,[2]; after 20 days,significantly decreased tumor growth
same,median tumor volume,"[2]; day 26, 10^7 transfected Nalm-6 cells s.c., female NOD/SCID mice",23.32 mm^3
same,median tumor weight,[2]; end of the experiment,0.0159 gr
same,ADAM10 protein level compared to scrambled-miR,[3],only NAMPT protein expression levels were reduced
